Assay results reported in patent USRE36784E, “Chemoprotective isothiocyanates” (The Johns Hopkins University, priority 1997, dated 2000).
Entries after “also recorded” stand apart in the source; their conditions may differ. Read-outs that look alike come from different tables or passages of the source.

Columns and labels:
[1] = system: quinone reductase (QR) in Hepa 1c1c7 murine hepatoma cells; assay: Induction of QR (inducer potency, CD value) in Hepa 1c1c7 murine hepatoma cells; format: cell-based; conditions: for activity as inducers compared with sulforaphane and sulforaphene: in cell culture
Experimental: (§1) Assay of Inducer Potency. Inducer activity was measured in Hepa 1c1c7 murine hepatoma cells grown in 96-well microtiter plates (Prochaska and Santamaria, Anal. Biochem. 169:328-336 (1988); Prochaska et al., Proc. Natl. Acad. Sciences USA 89:2394-2398 (1992)). QR activity (based on the formation of the blue-brown reduced tetrazolium dye) was measured with an optical microtiter plate scanner in cell lysates prepared in one plate, and the cell density was determined in the second plate by staining with crystal violet. Quantitative information on specific activity of QR, the inducer potency, and the cytotoxicity of the extract or compound tested is obtained by computer analysis of the absorbances. One unit of inducer activity is defined as the amount that when added to a single microtiter well doubled the QR specific activity. The CD value is the concentration of a compound required to double the quinone reductase specific activity in Hepa 1c1c7 murine hepatoma cells.
Each of the analogs of sulforaphane was tested for the ability to induce QR in murine hepatoma cells by the assay described in Example 1.
Analogs were synthesized and tested in the hepatoma cell assay described in Example 1.

[2] = system: Hepa 1c1c7 murine hepatoma cells; conditions: Hepa 1c1c7 cells
Experimental: as §1

QR (quinone reductase) = assay: Induction of QR in mouse tissues after gavage; format: in vivo, mouse (female CD-1)
Experimental: (§2) The compounds were administered to 6week-old female CD1 mice (4 or 5 mice
(§3) per group) by gavage in indicated single daily doses in 0.1 ml of Emulpho
(§4) EL 620P (GAF. Linden, NJ) for 5 days. Cytosols were prepared from the
(§5) tissues 24 hr after the last treatment and assayed for enzyme activities
(§6) (glutathione Stransferase was measured with 1chloro-2,4-dinitrobenzene).
(§7) The specific activities (nmol · min^-1 · mg^-1
(§8) ± SEM) of organs of vehicletreated #control mice were as follows.
(§9) 54 ± 5.8: GST. 439 ± 34. Data are presented as mean ± SEM.

[3] = system: glutathione S-transferase (GST); assay: Induction of glutathione S-transferase (GST) in mouse tissues after gavage; format: in vivo, mouse (female CD-1)
Experimental: as §2, §3, §4, §5, §6, §7, §8, §9

[4] = system: QR in BP^r cl mutant (defective in transport of the liganded Ah receptor to the nucleus); conditions: data not shown
[5] = system: QR in cl mutant (which synthesizes inactive cytochrome P-450IA1); conditions: data not shown
[6] = system: phase I and phase II enzymes in mutants of Hepa 1c1c7 cells; conditions: phase II selective = monofunctional
[7] = system: phase I and phase II enzymes in mutants of Hepa 1c1c7 cells; conditions: Prochaska et al. 1988; cited from earlier work
[8] = system: quinone reductase (QR) in Hepa 1c1c7 murine hepatoma cells; design: unit not given here; conditions: footnote 3, reported value; cited from earlier work
[9] = Mus musculus, Hepa-1c1c7, text, isolated (R)- and synthetic (R,S)-sulforaphane, read-out: CD values
[10] = 15 μmol per mouse per day, gavage, 5 days, glandular stomach
[11] = 15 μmol per mouse per day, gavage, 5 days, liver
[12] = 15 μmol per mouse per day, gavage, 5 days, lung
[13] = 15 μmol per mouse per day, gavage, 5 days, proximal small intestine
[14] = Mus musculus, Hepa-1c1c7, read-out: CD, Table 3, QR induction, hepatoma cell assay of Example 1
[15] = Mus musculus, Hepa-1c1c7, read-out: CD value, Table 1, QR induction, Hepa 1c1c7 cells
[16] = Table 3, QR induction, hepatoma cell assay of Example 1, read-out: CD

Row | SMILES | EC (2-fold QR specific activity) [1, 14] [µM] | further results
1 | C[S+]([O-])CCCCN=C=S (racemic) [(R,S)-sulforaphane] | – | EC (2-fold QR specific activity) [1, 9]: 0.2 to 0.4 µM; cytotoxicity in words [2]: relatively noncytotoxic
2 | C[S+]([O-])CCCCN=C=S (racemic) [Sulforaphane] | – | EC (2-fold QR specific activity) ([1]; Mus musculus, Hepa-1c1c7, Table 1, QR induction, Hepa 1c1c7 cells, read-out: CD value): 0.4 to 0.8 µM; relative potency as inducers of QR ([1]; comparison in words, Table 1): most potent monofunctional inducer that has been identified; also recorded: equipotent; rise in QR activity in lung (QR (quinone reductase); 15 μmol daily for 5 days, lung): to a lesser degree; Ratio of specific activities (treated/control), QR, Forestomach (QR (quinone reductase); 15 μmol per mouse per day, gavage, 5 days, forestomach, *P < 0.05): 1.70 ± 0.18; Ratio of specific activities (treated/control), QR, Glandular stomach (QR (quinone reductase); [10]): 2.35 ± 0.06; Ratio of specific activities (treated/control), QR, Liver (QR (quinone reductase); [11]): 2.45 ± 0.07; Ratio of specific activities (treated/control), QR, Lung (QR (quinone reductase); [12]): 1.37 ± 0.14; Ratio of specific activities (treated/control), QR, Proximal small intestine (QR (quinone reductase); [13]): 2.34 ± 0.19; rise in glutathione transferase activity in lung ([3]; 15 μmol daily for 5 days, lung): to a lesser degree; Ratio of specific activities (treated/control), GST, Forestomach ([3]; 15 μmol per mouse per day, gavage, 5 days, forestomach): 1.98 ± 0.08; Ratio of specific activities (treated/control), GST, Glandular stomach [3, 10]: 2.97; Ratio of specific activities (treated/control), GST, Liver [3, 11]: 1.86 ± 0.08; Ratio of specific activities (treated/control), GST, Lung [3, 12]: 1.17; Ratio of specific activities (treated/control), GST, Proximal small intestine [3, 13]: 2.13; induction of QR in mutant cells [4]: normal; induction of QR in mutant cells [5]: normal; inducer type [6]: monofunctional inducer
3 | CS(=O)(=O)[C@@H]1CCC[C@@H](CN=C=S)C1 (relative stereo) [GHP 1079, cis- or trans-3-(methylsulfonyl)cyclohexylmethylisothiocyanate] | 0.48 | –
4 | CS(=O)(=O)[C@@H]1CCC[C@H](CN=C=S)C1 (relative stereo) [GHP 1080, cis- or trans-3-(methylsulfonyl)cyclohexylmethylisothiocyanate] | 0.41 | –
5 | C[S@@+]([O-])CCCCN=C=S [(R)-sulforaphane] | – | inducer activity ([1]; 8.9 mg isolated after HPLC/TLC/HPLC): 558,000 inducer units; EC (2-fold QR specific activity) [1, 9]: 0.2 to 0.4 µM; cytotoxicity in words [2]: relatively noncytotoxic
6 | C[S+]([O-])CCCCCN=C=S (stereo not shown) [Alyssin] | – | EC (2-fold QR specific activity) [1, 15]: 0.95 µM; activity as inducers compared with sulforaphane and sulforaphene [1]: less active
7 | S=C=NCc1ccccc1 [Benzylisothiocyanate] | – | inducer type [7]: monofunctional inducer
8 | CSCCCCCN=C=S [Berteroin] | – | EC (2-fold QR specific activity) [1, 15]: 1.7 µM; activity as inducers compared with sulforaphane and sulforaphene [1]: less active
9 | CS(=O)(=O)CCCN=C=S [Cheirolin] | – | EC (2-fold QR specific activity) [1, 15]: 1.3 µM; activity as inducers compared with sulforaphane and sulforaphene [1]: less active
10 | CSCCCCCN=C=S [GHP 1001] | 1.71 | –
11 | C[S+]([O-])CCCCCN=C=S (stereo not shown) [GHP 1002] | 0.94 | –
12 | CS(=O)(=O)CCCCCN=C=S [GHP 1003, 1-isothiocyanato-5-methylsulfonylpentane] | 0.98 | EC (2-fold QR specific activity) [1, 15]: 0.98 µM
13 | S=C=NCCCCCSSCCCCCN=C=S [GHP 1004] | 0.83 | –
14 | C[S+]([O-])CCCCN=C=S (stereo not shown) [GHP 1005] | – | EC (2-fold QR specific activity) ([1]; Mus musculus, Hepa-1c1c7, Table 3, QR induction, hepatoma cell assay of Example 1, read-out: CD): 0.2 µM
15 | CS(=O)(=O)CCCCN=C=S [GHP 1007] | 0.82 | –
16 | CSCCCN=C=S [GHP 1008] | 3.52 | –
17 | C[S+]([O-])CCCN=C=S (stereo not shown) [GHP 1009] | 2.36 | –
18 | CS(=O)(=O)CCCN=C=S [GHP 1010] | 1.32 | –
19 | CSCc1ccccc1CN=C=S [GHP 1021] | 4.3 | –
20 | CSc1ccccc1CCN=C=S [GHP 1022] | 7.4 | –
21 | CSCCc1ccccc1N=C=S [GHP 1023] | 100 | –

Row | SMILES | EC (2-fold QR specific activity) [1, 14] [µM] | further results
22 | COc1ccccc1N=C=S [GHP 1031] | 100 | –
23 | S=C=Nc1ccccc1Cl [GHP 1032] | 100 | –
24 | NC(=O)c1ccc(N=C=S)cc1 [GHP 1033] | 100 | –
25 | COc1ccccc1CN=C=S [GHP 1041] | 2.41 | –
26 | COc1cccc(CN=C=S)c1 [GHP 1042] | 8.65 | –
27 | COc1ccc(CN=C=S)cc1 [GHP 1043] | 25 | –
28 | COc1cccc(OC)c1CN=C=S [GHP 1044] | 5.8 | –
29 | CN(C)c1ccccc1CN=C=S [GHP 1045] | 12.5 | –
30 | CSc1ccccc1CN=C=S [GHP 1046] | 6.8 | –
31 | Fc1ccccc1CN=C=S [GHP 1047] | 13.1 | –
32 | S=C=NCc1ccccc1Cl [GHP 1048] | 14.1 | –
33 | S=C=NCc1ccccc1Br [GHP 1049] | 12.5 | –
34 | Cc1ccccc1CN=C=S [GHP 1050] | 3.7 | –
35 | CCOc1ccccc1CN=C=S [GHP 1051] | 2.5 | –
36 | S=C=NC1CCc2ccccc21 (stereo not shown) [GHP 1052] | 38.9 | –
37 | CCc1ccccc1CN=C=S [GHP 1053] | 12.5 | –
38 | CCOC(=O)CN=C=S [GHP 1061] | 8.2 | –
39 | CS(=O)(=O)c1ccc(CN=C=S)cc1 [GHP 1062] | 1.2 | –
40 | CS(=O)(=O)C1CC2CC1CC2N=C=S (stereo not shown) [GHP 1063] | 1.02 | –
41 | CS(=O)(=O)C1CC2CC1CC2N=C=S (stereo not shown) [GHP 1064] | – | EC (2-fold QR specific activity) [1, 16]: 0.66 µM
42 | CC(=O)C1CC2CC1CC2N=C=S (stereo not shown) [GHP 1065] | 0.77 | –

Row | SMILES | EC (2-fold QR specific activity) [1, 14] [µM] | further results
43 | CC(=O)C1CC2CC(N=C=S)C1C2 (stereo not drawn) [GHP 1066, exo-2-acetyl-6-isothiocyanatonorbornane] | 0.26 | –
44 | CC(=O)C1CC2CC1CC2N=C=S (stereo not drawn) [GHP 1067, exo-2-acetyl-5-isothiocyanatonorbornane] | – | EC (2-fold QR specific activity) [1, 16]: 0.43 µM
45 | CS(=O)(=O)C1CC2CC(N=C=S)C1C2 (stereo not drawn) [GHP 1068, exo-2-isothiocyanato-6-methylsulfonylnorbornane] | 0.15 | –
46 | COC(=O)C1CC2CC1CC2N=C=S (stereo not shown) [GHP 1069] | 0.68 | –
47 | COC(=O)C1CC2CC(N=C=S)C1C2 (stereo not shown) [GHP 1070] | 1.6 | –
48 | N#CC1CC2CC1CC2N=C=S (stereo not shown) [GHP 1071] | 0.59 | –
49 | O=[N+]([O-])C1CC2CC1CC2N=C=S (stereo not shown) [GHP 1072] | 1.05 | –
50 | CS(=O)(=O)[C@H]1CC[C@@H](N=C=S)CC1 [GHP 1073, cis-1-isothiocyanate-4-methylsulfonylcyclohexane] | 0.44 | –
51 | CCOC(=O)C(CCS(C)(=O)=O)N=C=S (stereo not shown) [GHP 1074] | 2.64 | –
52 | CC(O)C1CC2CC1CC2N=C=S (stereo not drawn) [GHP 1075, exo-2-(1'-hydroxyethyl)-5-isothiocyanatonorbornane] | 0.45 | –
53 | OC1CC2CC1CC2N=C=S (stereo not shown) [GHP 1077] | 1.85 | –
54 | CP(C)(=O)CCCCN=C=S [GHP 1078, 1-isothiocyanato-4-dimethylphosphonyl-butane] | 0.43 | –
55 | CCCCC(=O)CCCCN=C=S [GHP 1081] | 2 | –
56 | N#CCCCCN=C=S [GHP 1101] | 1.97 | –
57 | COC(=O)CCCCN=C=S [GHP 1102] | 2.81 | –
58 | O=C(O)CCCCN=C=S [GHP 1103] | 2.19 | –
59 | CC(=O)CCCCN=C=S [GHP 1105, 6-isothiocyanato-2-hexanone] | 0.23 | –
60 | CC(O)CCCCN=C=S (stereo not shown) [GHP 1106, 6-isothiocyanato-2-hexanol] | 0.35 | –
61 | C[S+]([O-])CCCN=C=S (stereo not shown) [Iberin] | – | EC (2-fold QR specific activity) [1, 15]: 2.4 µM; activity as inducers compared with sulforaphane and sulforaphene [1]: less active
62 | CSCCCN=C=S [Iberverin] | – | EC (2-fold QR specific activity) [1, 15]: 3.5 µM; activity as inducers compared with sulforaphane and sulforaphene [1]: less active
63 | S=C=NC1CCCCC1 [cyclohexylisothiocyanate] | – | CD value (reported) [8]: 14
